# Test system: SMS-KAN cell
# Test: messenger RNA expression analysis, AceGene Human oligo chip 30 K, NR1I2-expressing clone B1 vs control clone
# Format: cell-based
# Details: 2nd: Cy5-B1/Cy3-control
# Source text: The NR1I2 gene has been known as a transcriptional factor. Thus, it is possible to know what type of gene expression is controlled by obtaining messenger RNAs from cells causing NR1I2 protein expression and cells not causing such expression, and comparing the expression levels thereof with each other. As described above, the NR1I2 gene protein may have an effect of inhibiting cancer. […] Therefore, pCMV-Tag3 vector not containing a foreign gene as a control was introduced into SMS-KAN cell, and pCMV-Tag3-VP-NR1I2 containing the NR1I2 gene as a test sample was introduced into SMS-KAN cell. As a result, a control cell clone and a cell clone B1 permanently causing NR1I2 protein expression were obtained. Thereafter, analysis of messenger RNA expression was carried out using these two types of cells and an AceGene Human oligo chip 30 K (DNA Chip Research Inc.), with which the expression levels of 30,000 human genes can be observed (Inoue. J., et al. Am J. Pathol. 165. 71. 2004). A complementary strand DNA (complimentary DNA) was prepared, into which aminoallyl-dUTP (Ambion Inc.) was incorporated using an Oligo (dT) 12-18 primer. Then, the aminoallyl group was labeled with reactive Cy3 (cyanin 3) and Cy5 (cyanin 5) (Amersham Biosciences) via a coupling reaction. Hybridization was performed twice (1st: Cy3-B1/Cy5-control; 2nd: Cy5-B1/Cy3-control). Signals were measured using a GenePix 4000B (Axon Instruments) so as to be analyzed by GenePix Pro 4.1 software (Axon Instruments). Tables 3 and 4 are lists of genes, where in the cases of SMS-KAN cells into which the NR1I2 gene had been introduced in the two experiments, the expression levels were 1.5-fold or greater than the expression level in the case of a control cell clone.
substance,measurement,value
"NR1I2 gene: human-derived gene, nuclear receptor subfamily 1, group I, member 2 (pregnane X receptor, PXR), nucleotide sequence SEQ ID NO: 1",ADAMTS2 expression level Ratio 2nd,1.60
same,ADNP expression level Ratio 2nd,1.63
same,AP3S2 expression level Ratio 2nd,2.55
same,APEG1 expression level Ratio 2nd,1.91
same,APOA1 expression level Ratio 2nd,2.00
same,APP expression level Ratio 2nd,2.05
same,ARHC expression level Ratio 2nd,1.52
same,ARL2 expression level Ratio 2nd,1.53
same,ASCL2 expression level Ratio 2nd,2.46
same,ASH1 expression level Ratio 2nd,1.83
same,B4GALT5 expression level Ratio 2nd,1.56
same,BARD1 expression level Ratio 2nd,1.93
same,BCAT2 expression level Ratio 2nd,1.63
same,BLP2 expression level Ratio 2nd,1.53
same,BMP15 expression level Ratio 2nd,1.52
same,C6orf25 expression level Ratio 2nd,1.76
same,CCNA1 expression level Ratio 2nd,1.92
same,CDC7L1 expression level Ratio 2nd,1.86
same,CISH expression level Ratio 2nd,2.17
same,CORO2A expression level Ratio 2nd,1.73
same,Cab45 expression level Ratio 2nd,1.86
same,DKFZp434G05 expression level Ratio 2nd,1.58
same,DKKL1 expression level Ratio 2nd,1.56
same,DNA12 expression level Ratio 2nd,1.54
same,EPHX1 expression level Ratio 2nd,2.25
same,ERCC1 expression level Ratio 2nd,1.84
same,ETR101 expression level Ratio 2nd,1.67
same,EXT1 expression level Ratio 2nd,1.89
same,FLJ10737 expression level Ratio 2nd,1.54
same,FLJ12389 expression level Ratio 2nd,2.19
same,FLJ13197 expression level Ratio 2nd,2.99
same,FLJ13479 expression level Ratio 2nd,1.94
same,FLJ20288 expression level Ratio 2nd,1.83
same,FLJ20555 expression level Ratio 2nd,1.53
same,FLJ23462 expression level Ratio 2nd,1.67
same,FOFR3 expression level Ratio 2nd,1.59
same,GLI2 expression level Ratio 2nd,2.72
same,GNE expression level Ratio 2nd,1.90
same,GSTT2 expression level Ratio 2nd,3.28
same,GUCY1A3 expression level Ratio 2nd,1.63
same,HHEX expression level Ratio 2nd,1.57
same,HNT expression level Ratio 2nd,1.57
same,HPCL2 expression level Ratio 2nd,1.74
same,ICAM5 expression level Ratio 2nd,1.54
same,IFIT4 expression level Ratio 2nd,1.54
same,INSL6 expression level Ratio 2nd,1.68
same,IRC039700 expression level Ratio 2nd,2.15
same,KCNJ15 expression level Ratio 2nd,1.91
same,KIAA0161 expression level Ratio 2nd,1.56
same,KIAA0212 expression level Ratio 2nd,2.04
same,LBP-9 expression level Ratio 2nd,1.95
same,LDB1 expression level Ratio 2nd,1.60
same,LICAM expression level Ratio 2nd,1.89
same,LILRB5 expression level Ratio 2nd,1.76
same,LOC51024 expression level Ratio 2nd,1.69
same,LRP8 expression level Ratio 2nd,1.54
same,LZLP expression level Ratio 2nd,1.61
same,MAFG expression level Ratio 2nd,2.55
same,MGC2306 expression level Ratio 2nd,1.58
same,MGC2941 expression level Ratio 2nd,1.93
same,MPP6 expression level Ratio 2nd,1.70
same,MT-ACT48 expression level Ratio 2nd,1.61
same,OCM expression level Ratio 2nd,1.72
same,OMP expression level Ratio 2nd,1.58
same,OPA3 expression level Ratio 2nd,2.49
same,ORC5L expression level Ratio 2nd,1.69
same,ORM1 expression level Ratio 2nd,1.60
same,PCDHA4 expression level Ratio 2nd,1.97
same,PCDHB10 expression level Ratio 2nd,1.66
same,PDCD8 expression level Ratio 2nd,2.03
same,PFKFB4 expression level Ratio 2nd,4.97
same,PGAM1 expression level Ratio 2nd,2.16
same,PITPN expression level Ratio 2nd,1.75
same,PLA2G2A expression level Ratio 2nd,3.05
same,PLCE1 expression level Ratio 2nd,2.94
same,PLEKHA1 expression level Ratio 2nd,1.56
same,PRO2121 expression level Ratio 2nd,1.91
same,PRO2831 expression level Ratio 2nd,1.53
same,RDH5 expression level Ratio 2nd,1.64
same,RP1 expression level Ratio 2nd,1.56
same,RPL39L expression level Ratio 2nd,2.34
same,RPS16 expression level Ratio 2nd,1.59
same,SC65 expression level Ratio 2nd,1.58
same,SCD expression level Ratio 2nd,1.77
same,SCN2B expression level Ratio 2nd,1.54
same,SLC22A11 expression level Ratio 2nd,1.68
same,SNAP91 expression level Ratio 2nd,3.43
same,STK11 expression level Ratio 2nd,1.64
same,SURF1 expression level Ratio 2nd,1.95
same,TCEA1 expression level Ratio 2nd,1.56
same,TGM2 expression level Ratio 2nd,1.62
same,TIMM10 expression level Ratio 2nd,1.89
same,TLAL1 expression level Ratio 2nd,2.37
same,TMPRSS4 expression level Ratio 2nd,1.57
same,TOP3B expression level Ratio 2nd,1.61
same,TPARL expression level Ratio 2nd,1.58
same,TRPV4 expression level Ratio 2nd,1.80
same,TSPAN-1 expression level Ratio 2nd,1.69
same,UXT expression level Ratio 2nd,2.94
same,WHSC2 expression level Ratio 2nd,1.67

# — patent US20090011424A1, “Cancer-suppressing agents” (Tokyo Medical and Dental University, priority 2005, published 2009)
